Data: PubChem BioAssay (NCI)
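1) Cells in 96-well plates. 2) Compound, 48 h, 5 concentrations. 3) Linear interpolation between surrounding doses. 4) Unreached endpoint = highest concentration. GI50: concentration for 50% inhibition of growth. TGI denotes the concentration required for complete inhibition of growth.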

Key:
Assay in all cases: NCI tumour cell line growth inhibition, 48 h
[1] = system: 786-0 renal
[2] = system: A498 renal
[3] = system: A549 NSCLC
[4] = system: ACHN renal
[5] = system: BT-549 breast
[6] = system: CAKI-1 renal
[7] = system: CCRF-CEM leukemia
[8] = system: COLO 205 colon
[9] = system: DU-145 prostate
[10] = system: EKVX NSCLC
[11] = system: HCC-2998 colon
[12] = system: HCT-116 colon
[13] = system: HCT-15 colon
[14] = system: HL-60(TB) leukemia
[15] = system: HOP-62 NSCLC
[16] = system: HOP-92 NSCLC
[17] = system: HS 578T breast
[18] = system: HT29 colon
[19] = system: IGROV1 ovarian
[20] = system: K-562 leukemia
[21] = system: KM12 colon
[22] = system: LOX IMVI melanoma
[23] = system: M14 melanoma
[24] = system: MALME-3M melanoma
[25] = system: MCF7 breast
[26] = system: MDA-MB-231 breast
[27] = system: MDA-MB-435
[28] = system: MOLT-4 leukemia
[29] = system: NCI-H226 lung
[30] = system: NCI-H23 lung
[31] = system: NCI-H460 lung
[32] = system: NCI-H522 lung
[33] = system: NCI/ADR-RES ovarian
[34] = system: OVCAR-3 ovarian
[35] = system: OVCAR-4 ovarian
[36] = system: OVCAR-5 ovarian
[37] = system: OVCAR-8 ovarian
[38] = system: PC-3 prostate
[39] = system: RPMI-8226 leukemia
[40] = system: RXF 393 renal
[41] = system: SF-268 CNS
[42] = system: SF-295 CNS
[43] = system: SF-539 CNS
[44] = system: SK-MEL-2 melanoma
[45] = system: SK-MEL-28 melanoma
[46] = system: SK-MEL-5 melanoma
[47] = system: SK-OV-3 ovarian
[48] = system: SN12C renal
[49] = system: SNB-19 CNS
[50] = system: SNB-75 CNS
[51] = system: SR leukemia
[52] = system: SW-620 colon
[53] = system: T-47D breast
[54] = system: TK-10 renal
[55] = system: U251 CNS
[56] = system: UACC-257 melanoma
[57] = system: UACC-62 melanoma
[58] = system: UO-31 renal

CCN1C(=O)NC(=O)C(C)(N2C(=O)c3c(F)c(F)c(F)c(F)c3C2=O)C1=O (configuration not stated)
GI50 [1]: 4490 nM
TGI [1]: 17.7 µM
GI50 [2]: 17.7 µM
TGI [2]: 32.9 µM
GI50 [3]: 3690 nM
TGI [3]: 18.3 µM
GI50 [4]: 2030 nM
TGI [4]: 3.94 µM
GI50 [5]: 3820 nM
TGI [5]: 13.3 µM
GI50 [6]: 1940 nM
TGI [6]: 4.86 µM
GI50 [7]: 1890 nM
TGI [7]: 4.54 µM
GI50 [8]: 2130 nM
TGI [8]: 4.47 µM
GI50 [9]: 3130 nM
TGI [9]: 11.6 µM
GI50 [10]: 5.76 µM
TGI [10]: 18 µM
GI50 [11]: 2520 nM
TGI [11]: 7.77 µM
GI50 [12]: 2360 nM
TGI [12]: 7.31 µM
GI50 [13]: 2860 nM
TGI [13]: 11.1 µM
GI50 [14]: 1610 nM
TGI [14]: 3490 nM
GI50 [15]: 5.97 µM
TGI [15]: 18.3 µM
GI50 [16]: 1.86 µM
TGI [16]: 4.12 µM
GI50 [17]: 3950 nM
TGI [17]: 25.1 µM
GI50 [18]: 2400 nM
TGI [18]: 8.58 µM
GI50 [19]: 1900 nM
TGI [19]: 4.92 µM
GI50 [20]: 1660 nM
TGI [20]: 3.71 µM
GI50 [21]: 2110 nM
TGI [21]: 4.56 µM
GI50 [22]: 1870 nM
TGI [22]: 4 µM
GI50 [23]: 3160 nM
TGI [23]: 10.7 µM
GI50 [24]: 2060 nM
TGI [24]: 5.48 µM
GI50 [25]: 2770 nM
TGI [25]: 13.5 µM
GI50 [26]: 2660 nM
TGI [26]: 9.13 µM
GI50 [27]: 2960 nM
TGI [27]: 10.6 µM
GI50 [28]: 2440 nM
TGI [28]: 10.1 µM
GI50 [29]: 9.58 µM
TGI [29]: 36.7 µM
GI50 [30]: 3920 nM
TGI [30]: 17.7 µM
GI50 [31]: 4950 nM
TGI [31]: 10.6 µM
GI50 [32]: 1660 nM
TGI [32]: 3.97 µM
GI50 [33]: 3600 nM
TGI [33]: 18.2 µM
GI50 [34]: 1710 nM
TGI [34]: 3.22 µM
GI50 [35]: 2440 nM
TGI [35]: 6.31 µM
GI50 [36]: 3820 nM
TGI [36]: 14.8 µM
GI50 [37]: 3550 nM
TGI [37]: 22.6 µM
GI50 [38]: 3090 nM
TGI [38]: 10.5 µM
GI50 [39]: 1650 nM
TGI [39]: 6.53 µM
GI50 [40]: 1990 nM
TGI [40]: 4430 nM
GI50 [41]: 2600 nM
TGI [41]: 7.43 µM
GI50 [42]: 9.67 µM
TGI [42]: 23.9 µM
GI50 [43]: 2890 nM
TGI [43]: 8.02 µM
GI50 [44]: 3840 nM
TGI [44]: 21.6 µM
GI50 [45]: 2250 nM
TGI [45]: 5.82 µM
GI50 [46]: 4920 nM
TGI [46]: 13.7 µM
GI50 [47]: 10.1 µM
TGI [47]: 24.6 µM
GI50 [48]: 3990 nM
TGI [48]: 14.6 µM
GI50 [49]: 9.49 µM
TGI [49]: 24.9 µM
GI50 [50]: 2960 nM
TGI [50]: 11.1 µM
GI50 [51]: 444 nM
TGI [51]: 2220 nM
GI50 [52]: 1820 nM
TGI [52]: 3.85 µM
GI50 [53]: 3420 nM
TGI [53]: 11.9 µM
GI50 [54]: 3720 nM
TGI [54]: 18.6 µM
GI50 [55]: 1930 nM
TGI [55]: 4.04 µM
GI50 [56]: 4.26 µM
TGI [56]: 14 µM
GI50 [57]: 2750 nM
TGI [57]: 9.57 µM
GI50 [58]: 2390 nM
TGI [58]: 6.98 µM

O=C(Nc1ccc(CN2CCOCC2)cc1)c1[nH]ncc1Nc1ncnc2sccc12
GI50 [1]: 480 nM
TGI [1]: 7.96 µM
GI50 [2]: 0.0363 µM
TGI [2]: 0.461 µM
GI50 [3]: 306 nM
TGI [3]: 13.8 µM
GI50 [5]: 896 nM
TGI [5]: 5.88 µM
GI50 [6]: 477 nM
TGI [6]: > 100 µM
GI50 [7]: 337 nM
TGI [7]: 27.7 µM
GI50 [9]: 382 nM
TGI [9]: 15.5 µM
GI50 [10]: 0.805 µM
TGI [10]: 4.3 µM
GI50 [11]: 680 nM
TGI [11]: 5.08 µM
GI50 [12]: 217 nM
TGI [12]: 12.3 µM
GI50 [13]: 277 nM
TGI [13]: 16.7 µM
GI50 [14]: 249 nM
TGI [14]: 720 nM
GI50 [15]: 0.669 µM
TGI [15]: 41.6 µM
GI50 [16]: 5.52 µM
TGI [16]: > 100 µM
GI50 [17]: 140 nM
TGI [17]: 4.81 µM
GI50 [18]: 686 nM
TGI [18]: > 100 µM
GI50 [19]: 578 nM
TGI [19]: 23.6 µM
GI50 [20]: 402 nM
TGI [20]: > 100 µM
GI50 [21]: 311 nM
TGI [21]: 10.1 µM
GI50 [23]: 560 nM
TGI [23]: 13 µM
GI50 [24]: 1830 nM
TGI [24]: 8.61 µM
GI50 [25]: 265 nM
TGI [25]: > 100 µM
GI50 [26]: 854 nM
TGI [26]: > 100 µM
GI50 [27]: 525 nM
TGI [27]: 11.7 µM
GI50 [29]: 0.163 µM
TGI [29]: 0.63 µM
GI50 [30]: 358 nM
TGI [30]: 2.49 µM
GI50 [31]: 314 nM
TGI [31]: 10.9 µM
GI50 [32]: 413 nM
TGI [32]: 4.17 µM
GI50 [33]: 578 nM
TGI [33]: > 100 µM
GI50 [34]: 290 nM
TGI [34]: 2.81 µM
GI50 [35]: 600 nM
TGI [35]: 6.28 µM
GI50 [36]: 904 nM
TGI [36]: > 100 µM
GI50 [37]: 522 nM
TGI [37]: 22.4 µM
GI50 [38]: 494 nM
TGI [38]: > 100 µM
GI50 [39]: 517 nM
TGI [39]: 4.33 µM
GI50 [40]: 204 nM
TGI [40]: 639 nM
GI50 [41]: 595 nM
TGI [41]: 5.6 µM
GI50 [42]: 0.484 µM
TGI [42]: 16.5 µM
GI50 [43]: 141 nM
TGI [43]: 1.15 µM
GI50 [44]: 360 nM
TGI [44]: 2.14 µM
GI50 [45]: 629 nM
TGI [45]: 16.8 µM
GI50 [46]: 223 nM
TGI [46]: 0.638 µM
GI50 [47]: 0.103 µM
TGI [47]: > 100 µM
GI50 [48]: 390 nM
TGI [48]: > 100 µM
GI50 [49]: 0.703 µM
TGI [49]: > 100 µM
GI50 [50]: 17.4 nM
TGI [50]: 2.04 µM
GI50 [51]: 261 nM
TGI [51]: 989 nM
GI50 [52]: 418 nM
TGI [52]: > 100 µM
GI50 [53]: 739 nM
TGI [53]: > 100 µM
GI50 [54]: 1640 nM
TGI [54]: > 100 µM
GI50 [55]: 281 nM
TGI [55]: 13.2 µM
GI50 [56]: 1.96 µM
TGI [56]: 25.2 µM
GI50 [57]: 707 nM
TGI [57]: 5.7 µM
